Measured values taken from article PMC2359919, “Molecular targeting of retinoic acid metabolism in neuroblastoma: the role of the CYP26 inhibitor R116010 in vitro and in vivo” (British Journal of Cancer, 2007).

Assays:
[1] = system: mouse mammary carcinoma model; design: method as in Van Heusden et al, 2002; details: ref Van Heusden et al, 2002; cited from earlier work
[2] = system: SH-SY5Y, NGP, SH-EP and GIMEN cells; assay: Intracellular ATRA and 13cisRA concentrations in neuroblastoma cells, normal-phase HPLC; format: cell-based, human
Procedure: (§1) SH-SY5Y, SH-EP (N- and S-type cells respectively derived from the parental line SK-N-SH), LAN6, IMR-32, NGP and GIMEN neuroblastoma cell lines were cultured routinely in RPMI 1640 medium containing fetal calf serum (10%) and L-glutamine (2 mM). Cells were grown at 37°C in a humidified incubator containing 5% CO2.
(§2) 13-cis-Retinoic acid and ATRA were dissolved in DMSO and diluted in cell culture medium to obtain final concentrations of 0.1–10 μM. The final concentration of DMSO in all cases was <0.2%. All experiments were performed in dim light and tubes containing retinoids were wrapped in aluminium foil.
(§3) Cell pellets obtained from retinoid incubations were re-suspended in 2 ml cell culture medium and disrupted by passing the samples several times through a syringe and hypodermic needle (25G × 1 inches, 0.5 mm × 25 mm; Terumo, Somerset, NJ, USA). Tumour and liver tissues were re-suspended in PBS and homogenised (T25 homogeniser, IKA Laboratories, Staufen, Germany). Retinoids were extracted as described previously ([Veal et al, 2002]; [Armstrong et al, 2005b]). Samples were reconstituted in 200 μl mobile phase A (n-hexane:dichloromethane:propan-2-ol, 400 : 1 : 0.27) and analysed by normal-phase HPLC as described previously ([Veal et al, 2002]). For LC/MS analysis, samples were reconstituted in 200 μl mobile phase A (50% acetonitrile, 50% (0.2%) acetic acid, v v^−1).
Quantification of retinoid levels was carried out by HPLC analysis using a Waters 2690 Separations Module and 996 Photodiode array detector (Waters Ltd, Elstree, UK) and Waters Millennium software for data acquisition. Cell volumes were determined as described previously ([Veal et al, 2002]), and intracellular RA concentrations were expressed in micromolars.

[3] = system: CRABP II; assay: CRABP II mRNA expression in SH-SY5Y cells, real-time PCR; format: cell-based, human; details: ATRA 0.01 μM or 13cisRA 0.1 μM with R116010 1 μM vs retinoid alone, 24 h
Procedure: as §1, §2
RNA was reverse-transcribed using Promega's Reverse Transcription System according to the manufacturer's instructions, using random hexamer primers. Real-time PCR was performed on 20 ng cDNA using TaqMan gene expression products for human CYP26A1, CYP26B1, CRABPII, RARβ and MYCN in combination with the TaqMan Universal PCR master mix (Applied Biosystems, Warrington, UK). […] As internal standard, β-actin was measured simultaneously using the endogenous control assay provided by Applied Biosystems. […] Standard curves were generated from serial dilutions of cDNA prepared from cells treated with ATRA (1 μM) and the data were analysed using the GeneAmp Sequence Detection System software. CYP26C1 expression was analysed as described previously ([Taimi et al, 2004]).

[4] = system: SH-SY5Y, NGP, SH-EP and GIMEN cells; design: method as in Armstrong et al, 2005b; details: SH-SY5Y neuroblastoma cells; ref Armstrong et al, 2005b; cited from earlier work
[5] = design: method as in Villablanca et al, 1995; details: high-dose pulse therapy after autologous bone marrow transplantation or non-myeloablative therapy; ref Villablanca et al, 1995; cited from earlier work
[6] = system: neuroblastoma cell lines; design: method as in Villablanca et al, 1995; details: ref Villablanca et al, 1995; cited from earlier work
[7] = Effect of R116010 on retinoid concentrations (plasma, liver, tumour) in an SH-SY5Y xenograft model, LC/MS; format: in vivo, CD-1 nude mice; details: female, CD-1 nu/nu (athymic nude), mouse, tumour (SH-SY5Y xenograft), oral; 13cisRA 100 mg kg^−1 alone; SH-SY5Y tumour; 6 h; read-out: Tumour 13cisRA levels, control animals
Procedure: All in vivo experiments were approved by the relevant institutional animal welfare committees, and performed according to national law. Female athymic nude mice (CD-1 nu/nu, Charles River) used for antitumour studies were maintained and handled in isolators, under specific pathogen-free conditions, at 24°C with a 12 h light, 12 h dark cycle. Tumours were generated by implantation of SH-SY5Y cells subcutaneously (s.c.) into one flank of CD-1 nude mice (1 × 10^7 cells per animal).
Treatments began when the tumours were between 7 and 10 mm in length and breadth. Retinoids and R116010 were initially dissolved in DMSO before 10- or 20-fold dilutions in PBS, respectively. For pharmacokinetic studies, the animals were dosed with ATRA or 13cisRA (each 100 mg kg^−1) orally for 0.5, 2 and 6 h. For metabolism studies, animals were treated with R116010 orally at doses of 1.25 or 2.5 mg kg^−1 either immediately before the retinoid being studied, or up to three times (over 1–2 days) before dosing with the retinoid. At termination of experiments, animals were bled under terminal anaesthesia then killed by cervical dislocation. Plasma was immediately removed from the blood by centrifugation at 1000 g for 5 min and snap-frozen in liquid nitrogen in amber Eppendorfs. Tumour and liver samples were removed and snap-frozen, wrapped in foil, in liquid nitrogen.
as §3
Resolution of retinoids was performed with a Luna C18(2) column (3 μm, 50 mm × 2 mm) using a Perkin Elmer LC (Beaconsfield, UK) system, consisting of a vacuum degasser, two series 200 pumps, a thermostatically controlled series 200 autosampler and a Waters 2487 UV absorbance detector. Retinoic isomers and metabolites were separated by gradient reversed-phase chromatography. An injection volume of 20 μl with a flow rate of 0.2 ml min^−1 was used with mobile phase A (50% acetonitrile, 50% (0.2%) acetic acid, v v^−1) and mobile phase B (acetonitrile, 0.1% acetic acid, v v^−1). Linear gradients were employed between the specified times as follows: 0, 100% A; 5 min, 100% A; 15 min, 100% B; 20 min, 100% B; 23 min, 100% A; 35 min, 100% A. An Applied Biosystems (Warrington, UK) API-2000 LC/MS/MS triple Q (quadrupole) mass spectrometer with electrospray ionisation source, controlled by Analyst software, was operated in single quadrupole negative mode for the detection of compounds.

| SMILES | Antitumour activity as a single agent [1] | Effect on ATRA concentrations after incubation with 13cisRA ([2]; NGP cells, 10 μM 13cisRA with 1 or 10 μM R116010, 24 h) | Effect on ATRA levels after incubation with 13cisRA ([2]; SH-EP or GIMEN cells, 10 μM 13cisRA with 1 or 10 μM R116010, 24 h) | Effect on intracellular ATRA concentrations after ATRA treatment ([2]; SH-EP or GIMEN cells, 10 μM ATRA with 1 or 10 μM R116010, 24 h) | Effect on intracellular ATRA concentrations after ATRA treatment ([2]; SH-SY5Y and NGP cells, 10 μM ATRA with 1 or 10 μM R116010, 24 h) | Effect on ATRA concentrations after incubation with 13cisRA ([2]; SH-SY5Y cells, 10 μM 13cisRA with 1 or 10 μM R116010, 24 h) | Effect on 13cisRA concentrations after incubation with 13cisRA ([2]; all four cell lines, 10 μM 13cisRA with 1 or 10 μM R116010, 24 h) | Effect on 13cisRA levels after incubation with ATRA ([2]; any of the cell lines, 10 μM ATRA with 1 or 10 μM R116010, 24 h) | Effect on CRABP II expression, co-incubation with retinoid [3] | Inhibition of ATRA metabolism [4] | Peak drug levels in patients [5] [µM] | Concentration effective against neuroblastoma cell lines in vitro [6] [µM] | concentration at 6 h [7] [ng/g] |
| --- | --- | --- | --- | --- | --- | --- | --- | --- | --- | --- | --- | --- | --- |
| C[C@@H]([C@H](c1ccc(Nc2nc3ccccc3s2)cc1)n1ccnc1)N(C)C [R116010] | exhibits antitumour activity | similar, although nonsignificant, trend | no observable effect | no effect | significant increases | significant increase | no significant changes | no effect | significant increases | inhibits ATRA metabolism |  |  |  |
| CC1=C(/C=C/C(C)=C/C=C/C(C)=C\C(=O)O)C(C)(C)CCC1 [13cisRA, 13-cis-retinoic acid] |  |  |  |  |  |  |  |  |  |  | > 5 | 5 | 220 ± 40 |
